Data: US20230357239A1, “PYRIDO[2,3-D]PYRIMIDIN-4-AMINES AS SOS1 INHIBITORS” (Bayer Aktiengesellschaft, priority 2020, published 2023)

Biological target: human SOS1 (SOS1) with human K-RasG12C (Homo sapiens (Human), UniProt Q07889)
Assay: hK-RasG12C interaction assay with hSOS1 (HTRF)
Type: binding
Conditions: GST-hK-RasG12C and His-hSOS1, 60 min incubation at 20° C, mean, read-out: K-RasG12C - SOS interaction assay IC50 - [mol/l] (mean)
Experimental: Biochemical Assay: hK-RasG12C Interaction Assay with hSOS1
This assay quantifies the equilibrium interaction of human SOS1 (SOS1) with human K-Ras^G12C (K-RasG12C). Detection of the interaction is achieved by measuring homogenous time-resolved fluorescence resonance energy transfer (HTRF) from antiGST-Europium (FRET donor) bound to GST-K-RasG12C to anti-6His-XL665 bound to His-tagged hSOS1 (FRET-acceptor).
The assay buffer containes 5 mM HEPES pH 7.4 (Applichem), 150 mM NaCl (Sigma), 10 mM EDTA (Promega), 1 mM DTT (Thermofisher), 0.05% BSA Fraction V, pH 7.0, (ICN Biomedicals), 0.0025% (v/v) Igepal (Sigma) and 100 mM KF (FLUKA).
Concentrations of protein batches used are optimized to be within the linear range of the HTRF signal. A Ras working solution is prepared in assay buffer containing typically 10 nM GST-hK-RasG12C and 2 nM antiGST-Eu(K) (Cisbio, France). A SOS1 working solution is prepared in assay buffer containing typically 20 nM His-hSOS1 and 10 nM anti-6His-XL665 (Cisbio, France). An inhibitor control solution is prepared in assay buffer containing 10 nM anti-6His-XL665 without SOS1.
Fifty nl of a 100-fold concentrated solution of the test compound in DMSO are transferred into a black microtiter test plate (384 or 1536, Greiner Bio-One, Germany).
For this, either a Hummingbird liquid handler (Digilab, MA, USA) or an Echo acoustic system (Labcyte, CA, USA) is used.
All steps of the assay are performed at 20° C. A volume of 2.5 μl of the Ras working solution is added to all wells of the test plate using a Multidrop dispenser (Thermo Labsystems). After 2 min preincubation, 2.5 μl of the SOS1 working solution are added to all wells except for those wells at the side of the test plate that are subsequently filled with 2.5 μl of the inhibitor control solution. After 60 min incubation the fluorescence is measured with a Pherastar (BMG, Germany) using the HTRF module (excitation 337 nm, emission 1: 620 nm, emission 2: 665 nm).
The ratiometric data (emission 2 divided by emission 1) are normalized using the controls (DMSO=0% inhibition, inhibition control wells with inhibitor control solution=100% inhibition). […] IC50 values are calculated by 4-Parameter fitting using a commercial software package (Genedata Screener, Switzerland).

Sequence of human SOS1 (SOS1) with human K-RasG12C (Q07889 564-1049): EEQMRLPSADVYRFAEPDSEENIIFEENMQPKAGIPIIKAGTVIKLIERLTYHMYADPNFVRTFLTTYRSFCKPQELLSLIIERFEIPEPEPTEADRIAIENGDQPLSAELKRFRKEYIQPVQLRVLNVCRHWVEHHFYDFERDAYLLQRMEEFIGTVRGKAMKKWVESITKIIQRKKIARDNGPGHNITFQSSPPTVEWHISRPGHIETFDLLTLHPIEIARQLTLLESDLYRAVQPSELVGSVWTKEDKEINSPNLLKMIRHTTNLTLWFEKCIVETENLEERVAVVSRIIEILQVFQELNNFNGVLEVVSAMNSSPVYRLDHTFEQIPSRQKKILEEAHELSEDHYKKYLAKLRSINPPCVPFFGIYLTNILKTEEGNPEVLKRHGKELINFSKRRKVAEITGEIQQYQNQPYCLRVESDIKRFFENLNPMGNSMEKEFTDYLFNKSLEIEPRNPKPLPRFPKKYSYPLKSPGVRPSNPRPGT

SMILES | IC50 [µM]
CC(=O)N1CCC(c2cnc3nc(C)nc(N[C@H](C)c4cccc(C(F)(F)F)c4C)c3c2)C1 (mixture of isomers) [Example 31, 1-{(3RS)-3-[2-methyl-4-({(1R)-1-[2-methyl-3-(trifluoromethyl)phenyl]ethyl}amino)pyrido[2,3-d]pyrimidin-6-yl]pyrrolidin-1-yl}ethan-1-one] | 0.0119
C[C@@H](Nc1ncnc2ncc(Br)cc12)c1cccc(C(F)(F)F)c1 [Example 1, 6-bromo-N-{(1R)-1-[3-(trifluoromethyl)phenyl]ethyl}pyrido[2,3-d]pyrimidin-4-amine] | 0.409
CC(=O)N[C@@H]1CCN(c2cnc3ncnc(N[C@H](C)c4cccc(C(F)(F)F)c4)c3c2)C1 [Example 2, N-{(3R)-1-[4-({(1R)-1-[3-(trifluoromethyl)phenyl]ethyl}amino)pyrido[2,3-d]pyrimidin-6-yl]pyrrolidin-3-yl}acetamide] | 0.034
C[C@@H](Nc1ncnc2ncc(N3CCN(C)CC3)cc12)c1cccc(C(F)(F)F)c1 [Example 3, 6-(4-methylpiperazin-1-yl)—N-{(1R)-1-[3-(trifluoromethyl)phenyl]ethyl}pyrido[2,3-d]pyrimidin-4-amine] | 0.0139
CC(=O)N1CCN(c2cnc3ncnc(N[C@H](C)c4cccc(C(F)(F)F)c4)c3c2)CC1 [Example 4, 1-{4-[4-({(1R)-1-[3-(trifluoromethyl)phenyl]ethyl}amino)pyrido[2,3-d]pyrimidin-6-yl]piperazin-1-yl}ethan-1-one] | 0.0163
CC(=O)N1CC=C(c2cnc3ncnc(N[C@H](C)c4cccc(C(F)(F)F)c4)c3c2)CC1 [Example 5, 1-{4-[4-({(1R)-1-[3-(trifluoromethyl)phenyl]ethyl}amino)pyrido[2,3-d]pyrimidin-6-yl]-3,6-dihydropyridin-1(2H)-yl}ethan-1-one] | 0.00424
Cc1nc(N[C@H](C)c2cccc(C(F)(F)F)c2C)c2cc(Br)cnc2n1 [Example 6, 6-bromo-2-methyl-N-{(1R)-1-[2-methyl-3-(trifluoromethyl)phenyl]ethyl}pyrido[2,3-d]pyrimidin-4-amine] | 0.251
Cc1nc(N[C@H](C)c2cccc(C(F)(F)F)c2C)c2cc(N3CC4(CN(C(=O)OC(C)(C)C)C4)C3)cnc2n1 [Example 7, tert-butyl 6-[2-methyl-4-({(1R)-1-[2-methyl-3-(trifluoromethyl)phenyl]ethyl}amino)pyrido[2,3-d]pyrimidin-6-yl]-2,6-diazaspiro[3.3]heptane-2-carboxylate] | 0.18
CC(=O)N1CC2(C1)CN(c1cnc3nc(C)nc(N[C@H](C)c4cccc(C(F)(F)F)c4C)c3c1)C2 [Example 8, 1-{6-[2-methyl-4-({(1R)-1-[2-methyl-3-(trifluoromethyl)phenyl]ethyl}amino)pyrido[2,3-d]pyrimidin-6-yl]-2,6-diazaspiro[3.3]heptan-2-yl}ethan-1-one] | 0.0157
CC(=O)N1CCC(c2cnc3ncnc(N[C@H](C)c4cccc(C(F)(F)F)c4)c3c2)CC1 [Example 9, 1-{4-[4-({(1R)-1-[3-(trifluoromethyl)phenyl]ethyl}amino)pyrido[2,3-d]pyrimidin-6-yl]piperidin-1-yl}ethan-1-one] | 0.0643
CC(=O)N1CCN(c2cnc3ncnc(N[C@H](C)c4cccc(C(F)(F)F)c4C)c3c2)CC1 [Example 10, 1-{4-[4-({(1R)-1-[2-methyl-3-(trifluoromethyl)phenyl]ethyl}amino)pyrido[2,3-d]pyrimidin-6-yl]piperazin-1-yl}ethan-1-one] | 0.00355
CC(=O)N[C@@H]1CCN(c2cnc3ncnc(N[C@H](C)c4cccc(C(F)(F)F)c4C)c3c2)C1 [Example 11, N-{(3R)-1-[4-({(1R)-1-[2-methyl-3-(trifluoromethyl)phenyl]ethyl}amino)pyrido[2,3-d]pyrimidin-6-yl]pyrrolidin-3-yl}acetamide] | 0.0176
CC(=O)N1CC=C(c2cnc3ncnc(N[C@H](C)c4cccc(C(F)(F)F)c4C)c3c2)CC1 [Example 12, 1-{4-[4-({(1R)-1-[2-methyl-3-(trifluoromethyl)phenyl]ethyl}amino)pyrido[2,3-d]pyrimidin-6-yl]-3,6-dihydropyridin-1(2H)-yl}ethan-1-one] | 0.00406
CC(=O)N1CC2(C1)CN(c1cnc3nc(C)nc(N[C@H](C)c4cccc(C(F)(F)F)c4C)c3c1)C2 [Example 13, 1-{6-[2-methyl-4-({(1R)-1-[2-methyl-3-(trifluoromethyl)phenyl]ethyl}amino)pyrido[2,3-d]pyrimidin-6-yl]-2,6-diazaspiro[3.3]heptan-2-yl}ethan-1-one-hydrogen chloride (1/1)] | 0.00635
CC(=O)N1C[C@@H]2C[C@H]1CN2c1cnc2nc(C)nc(N[C@H](C)c3cccc(C(F)(F)F)c3C)c2c1 [Example 14, 1-{(1S,4S)-5-[2-methyl-4-({(1R)-1-[2-methyl-3-(trifluoromethyl)phenyl]ethyl}amino)pyrido[2,3-d]pyrimidin-6-yl]-2,5-diazabicyclo[2.2.1]heptan-2-yl}ethan-1-one] | 0.00515
Cc1nc(N[C@H](C)c2cccc(C(F)(F)F)c2C)c2cc(N3CCN(C)CC3)cnc2n1 [Example 15, 2-methyl-6-(4-methylpiperazin-1-yl)—N-{(1R)-1-[2-methyl-3-(trifluoromethyl)phenyl]ethyl}pyrido[2,3-d]pyrimidin-4-amine] | 0.0106
CC(=O)N[C@@H]1CCN(c2cnc3nc(C)nc(N[C@H](C)c4cccc(C(F)(F)F)c4C)c3c2)C1 [Example 16, N-{(3R)-1-[2-methyl-4-({(1R)-1-[2-methyl-3-(trifluoromethyl)phenyl]ethyl}amino)pyrido[2,3-d]pyrimidin-6-yl]pyrrolidin-3-yl}acetamide] | 0.0175
CC(=O)N1CCN(S(=O)(=O)c2cnc3nc(C)nc(N[C@H](C)c4cccc(C(F)(F)F)c4C)c3c2)CC1 [Example 17, 1-{4-[2-methyl-4-({(1R)-1-[2-methyl-3-(trifluoromethyl)phenyl]ethyl}amino)pyrido[2,3-d]pyrimidine-6-sulfonyl]piperazin-1-yl}ethan-1-one] | 0.00356
CC(=O)N1CCN(c2cc3c(N[C@H](C)c4cccc(C(F)(F)F)c4C)nc(C)nc3nc2C)CC1 [Example 19, 1-{4-[2,7-dimethyl-4-({(1R)-1-[2-methyl-3-(trifluoromethyl)phenyl]ethyl}amino)pyrido[2,3-d]pyrimidin-6-yl]piperazin-1-yl}ethan-1-one] | 0.00825
COc1nc2nc(C)nc(N[C@H](C)c3cccc(C(F)(F)F)c3C)c2cc1N1CC2(CN(C(C)=O)C2)C1 [Example 20, 1-{6-[7-methoxy-2-methyl-4-({(1R)-1-[2-methyl-3-(trifluoromethyl)phenyl]ethyl}amino)pyrido[2,3-d]pyrimidin-6-yl]-2,6-diazaspiro[3.3]heptan-2-yl}ethan-1-one] | 0.348
COc1nc2nc(C)nc(N[C@H](C)c3cccc(C(F)(F)F)c3C)c2cc1C1=CCN(C(C)=O)CC1 [Example 21, 1-{4-[7-methoxy-2-methyl-4-({(1R)-1-[2-methyl-3-(trifluoromethyl)phenyl]ethyl}amino)pyrido[2,3-d]pyrimidin-6-yl]-3,6-dihydropyridin-1(2H)-yl}ethan-1-one] | 0.949
COc1nc2nc(C)nc(N[C@H](C)c3cccc(C(F)(F)F)c3C)c2cc1C1CCN(C(C)=O)CC1 [Example 22, 1-{4-[7-methoxy-2-methyl-4-({(1R)-1-[2-methyl-3-(trifluoromethyl)phenyl]ethyl}amino)pyrido[2,3-d]pyrimidin-6-yl]piperidin-1-yl}ethan-1-one] | 0.805
COc1nc2nc(C)nc(N[C@H](C)c3cccc(C(F)(F)F)c3C)c2cc1N1CCCS1(=O)=O [Example 23, 2-[7-methoxy-2-methyl-4-({(1R)-1-[2-methyl-3-(trifluoromethyl)phenyl]ethyl}amino)pyrido[2,3-d]pyrimidin-6-yl]-1 lambda^6,2-thiazolidine-1,1-dione] | 2.64
CC(=O)N1CC2(C1)CN(c1cc3c(N[C@H](C)c4cccc(C(F)(F)CO)c4F)nc(C)nc3nc1C(F)(F)F)C2 [Example 24, 1-{6-[4-({(1R)-1-[3-(1,1-difluoro-2-hydroxyethyl)-2-fluorophenyl]ethyl}amino)-2-methyl-7-(trifluoromethyl)pyrido[2,3-d]pyrimidin-6-yl]-2,6-diazaspiro[3.3]heptan-2-yl}ethan-1-one] | 0.0028
